The record followed here is ChEMBL document CHEMBL1201862, “PubChem BioAssay data set” (2004).

As a reminder, the GI50 is the concentration giving 50% growth inhibition.

Structures are written as SMILES.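 Protocol summary: plate cells (96-well), add compound at 5 concentrations, incubate 48 h, interpolate endpoints linearly. GI50 marks 50% less growth.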 Active and inactive are the calls of the source. Rule as the data show it: active = GI50 up to about 1.1 µM and inactive = higher.

What all share (experiment): DTP human tumour cell line panel, 48 h
Assay [1] relates to ACHN.
Assay [2] has as its system CAKI-1.
The test system of assay [3] is EKVX.
For assay [4], the system named is HT-29.
In assay [5] the test system is K562.
The subject of assay [6] is MDA-MB-231.
Assay [7] relates to MDA-N.
The subject of assay [8] is Malme-3M.
Assay [9] deals with NCI-H226.
Assay [10] has as its system NCI-H23.
The subject of assay [11] is NCI-H522.
Assay [12] deals with NCI/ADR-RES.
The subject of assay [13] is OVCAR-3.
The subject of assay [14] is OVCAR-4.
Assay [15] relates to RXF 393.
In assay [16] the test system is SF-268.
Assay [17] relates to SF-539.
For assay [18], the system named is UACC-257.
Assay [19] concerns UACC-62.
For assay [20], the system named is HL-60.

In the case of `CCSC1SC(c2ccccc2)(c2ccccc2)c2ccccc21` (stereo not given), the GI50 is 44.7 µM (inactive) in assay [1]; 48.6 µM (inactive) in assay [2]; 51.3 µM (inactive) in [3]; 34.6 µM (inactive) in [4]; 62.4 µM (inactive) in [5]; 73.1 µM (inactive) in assay [6]. The GI50 was 35.9 µM (inactive) in [7]; 34.1 µM (inactive) in [8]; 31.6 µM (inactive) in assay [9]; 47.9 µM (inactive) in assay [10]; 43.5 µM (inactive) in [11]; 43.2 µM (inactive) in assay [12]. The GI50 in assay [13] was 23.8 µM (inactive); in assay [14], 55.1 µM (inactive); in assay [15] it was 19.5 µM (inactive); in [16], 93.1 µM (inactive); in assay [17], > 100 µM (inactive); in [18], 26.4 µM (inactive). For the same compound, the GI50 in assay [19] was 53.6 µM (inactive).

As to `COc1ccc(/C=N/c2ccc(-c3nc4ccccc4[nH]3)cc2)cc1OC`, the GI50 is > 100 µM (inactive) in assay [1]; > 100 µM (inactive) in assay [2]; > 100 µM (inactive) in assay [3]; 63.7 µM (inactive) in assay [20]; > 100 µM (inactive) in assay [4]; > 100 µM (inactive) in [5]. Further, the GI50 was 68.4 µM (inactive) in [6]; > 100 µM (inactive) in assay [7]; > 100 µM (inactive) in assay [8]; > 100 µM (inactive) in [9]; > 100 µM (inactive) in assay [10]; > 100 µM (inactive) in assay [11]. The GI50 was > 100 µM (inactive) in assay [12]; > 100 µM (inactive) in assay [13]; > 100 µM (inactive) in [14]; 97.9 µM (inactive) in [15]; 80 µM (inactive) in [16]; > 100 µM (inactive) in [17]. In addition, the GI50 in [18] was > 100 µM (inactive).

`CSc1ncc2c(C#N)c3[nH]c4ccccc4n3c(=O)c2n1`: the GI50 in assay [1] was 33.1 µM (inactive); in [2] it was 22.8 µM (inactive); in assay [3], 33.9 µM (inactive); in [20], 7.29 µM (inactive); in [5], 5.18 µM (inactive); in [6] it was 26.6 µM (inactive). The GI50 in assay [7] was 24.3 µM (inactive); in assay [9], 34.1 µM (inactive); in assay [10], 14.8 µM (inactive); in assay [11], 7.52 µM (inactive); in [12], 4.89 µM (inactive); in assay [13], 6.7 µM (inactive). Besides, the GI50 in assay [14] was 6.84 µM (inactive); in assay [15], 7.53 µM (inactive); in assay [16] it was 28 µM (inactive); in [17], 17.3 µM (inactive); in assay [18], 30.7 µM (inactive); in assay [19] it was 4.61 µM (inactive).

With `C[C@H](CCC(=O)O)[C@H]1CC[C@H]2[C@@H]3C(=O)C[C@@H]4C[C@H](O)CC[C@]4(C)[C@H]3C[C@H](O)[C@]12C`, the GI50 in assay [1], in assay [2], in assay [3], in [20], in assay [4] and in assay [5] was > 100 µM (inactive) throughout. Moreover, the GI50 in assay [6], in assay [7], in assay [8], in [9], in assay [10] and in assay [11] was > 100 µM (inactive) throughout. Besides, the GI50 in assay [12], in [14], in [15], in assay [16], in assay [17] and in assay [18] was > 100 µM (inactive) in each case. Besides, the GI50 in assay [19] was > 100 µM (inactive).

On to `CN(C)CCOc1ccc2[nH]c(C(=O)N3CC(CCl)c4ccc(N)cc43)cc2c1` (stereo not given), for which the GI50 in assay [1] is 0.0281 µM (active); in assay [2], 0.0489 µM (active); in [3] it was 0.231 µM (active); in [4] it was < 0.0358 µM (active); in assay [5] it was 0.0533 µM (active); in assay [6], 1.39 µM (inactive). Also, the GI50 in assay [7] was 0.143 µM (active); in [8] it was 0.164 µM (active); in assay [9], 0.0776 µM (active); in assay [10], 0.0562 µM (active); in assay [11], 0.0154 µM (active); in assay [12], 0.0933 µM (active). The concentration for 50% growth inhibition (GI50) in assay [13] is 0.0631 µM (active); in [14], 0.0703 µM (active); in assay [15], 0.0182 µM (active); in assay [16], 0.0375 µM (active); in assay [17], 0.385 µM (active); in assay [18] it was 0.151 µM (active). Besides, the concentration for 50% growth inhibition (GI50) in assay [19] was 0.0753 µM (active).

`Cc1cc(S(=O)(=O)Nc2nnc3cnc4ccccc4n23)c(S)cc1Cl`: the GI50 was 6.73 µM (inactive) in assay [1]; > 100 µM (inactive) in assay [2]; > 100 µM (inactive) in [20]; > 100 µM (inactive) in assay [4]; > 100 µM (inactive) in assay [5]; > 100 µM (inactive) in [6]. Also, the GI50 in assay [7] was > 100 µM (inactive); in assay [8], > 100 µM (inactive); in [9], > 94.6 µM (inactive); in [10], > 100 µM (inactive); in assay [11], > 100 µM (inactive); in assay [12], > 100 µM (inactive). The GI50 in assay [13] was 98.9 µM (inactive); in assay [14], > 100 µM (inactive); in assay [15] it was > 100 µM (inactive); in assay [16], 98.6 µM (inactive); in [17], > 100 µM (inactive); in [18], > 100 µM (inactive). Further, the GI50 in [19] was 79.1 µM (inactive).

Regarding `COc1ccc(C2=Nc3c(nc(SC)[nH]c3=O)NC(c3ccccc3)C2)cc1` (stereo not given), the GI50 was 21.8 µM (inactive) in assay [1]; 17.1 µM (inactive) in assay [2]; 24.4 µM (inactive) in [3]; 18.1 µM (inactive) in assay [20]; 21.8 µM (inactive) in assay [4]; 25.1 µM (inactive) in assay [5]. The GI50 in assay [6] was 14.3 µM (inactive); in [7], 16.9 µM (inactive); in assay [8], 37.1 µM (inactive); in assay [9], 26.2 µM (inactive); in [10] it was 20.6 µM (inactive); in assay [11] it was 17.1 µM (inactive). The GI50 was 20 µM (inactive) in [12]; 27.5 µM (inactive) in assay [13]; 20.7 µM (inactive) in assay [15]; 19.4 µM (inactive) in assay [17]; 22.9 µM (inactive) in [18]; > 10 µM (inactive) in [19].

With `C[C@]12CC[C@@H]3c4cc(C=O)c(OCc5ccccc5)cc4CC[C@H]3[C@@H]1CCC2OCc1ccccc1` (stereo not given in full), the GI50 in assay [1] was 95.9 µM (inactive); in assay [2], > 100 µM (inactive); in assay [3], > 100 µM (inactive); in [20], > 100 µM (inactive); in assay [4] it was > 100 µM (inactive); in assay [5] it was > 100 µM (inactive). For the same compound, the GI50 was > 100 µM (inactive) in [6]; > 100 µM (inactive) in assay [7]; 32.8 µM (inactive) in assay [9]; 89.9 µM (inactive) in [10]; 80 µM (inactive) in [11]; > 100 µM (inactive) in assay [12]. Besides, the GI50 in assay [13] was > 100 µM (inactive); in assay [14], > 100 µM (inactive); in assay [15], > 100 µM (inactive); in assay [16], > 100 µM (inactive); in assay [17], > 100 µM (inactive); in assay [18], 58.9 µM (inactive). Further, the GI50 in [19] is > 100 µM (inactive).

On to `Cc1cccc(-c2cc(O)c3ccc(C)nc3n2)c1`, for which the concentration for 50% growth inhibition (GI50) in assay [1] was 0.711 µM (active); in assay [2], 0.256 µM (active); in [20], 0.0902 µM (active); in [4] it was 0.198 µM (active); in [5], 0.0993 µM (active); in [6], 0.409 µM (active). Moreover, the GI50 is 0.0283 µM (active) in assay [7]; 0.296 µM (active) in assay [8]; 0.367 µM (active) in assay [9]; 0.643 µM (active) in assay [10]; 0.194 µM (active) in assay [11]; 0.141 µM (active) in assay [12]. For the same compound, the GI50 in assay [13] is 0.188 µM (active); in [14], 10 µM (inactive); in [15], 0.456 µM (active); in [16] it was 0.723 µM (active); in assay [17], 0.338 µM (active); in assay [19] it was 0.41 µM (active).

With `Cc1ccc(NC(=S)N/N=C(/c2ccccc2)c2ccccn2)cc1`, the GI50 was < 0.0371 µM (active) in [1]; 0.059 µM (active) in assay [2]; 0.0675 µM (active) in assay [3]; < 0.0121 µM (active) in assay [20]; 0.0541 µM (active) in assay [4]; < 0.0117 µM (active) in assay [5]. Moreover, the 50% growth inhibitory concentration (GI50) in assay [6] was < 0.01 µM (active); in assay [7] it was 0.708 µM (active); in assay [9], 0.124 µM (active); in assay [10], < 0.0187 µM (active); in [11] it was 1.31 µM (inactive); in assay [12] it was 0.0302 µM (active). Moreover, the GI50 in assay [13] is 0.0169 µM (active); in [14], 0.241 µM (active); in [15] it was 0.621 µM (active); in assay [16], < 0.0233 µM (active); in [17], 0.729 µM (active); in [18] it was < 0.0156 µM (active). Also, the GI50 in assay [19] is 0.304 µM (active).

On to `CC1NC(=O)c2c(-c3ccccc3)nn(-c3ccccc3)c2NC1=O` (stereo not given), for which the GI50 in assay [1], in [2], in assay [3], in assay [4], in assay [5] and in assay [6] was > 100 µM (inactive) throughout. Also, the GI50 in assay [7], in [8], in assay [9], in assay [10], in assay [11] and in assay [12] was > 100 µM (inactive) throughout. Moreover, the GI50 was 37.4 µM (inactive) in [13]; > 100 µM (inactive) in [14]; > 100 µM (inactive) in assay [15]; > 100 µM (inactive) in assay [16]; > 100 µM (inactive) in assay [18]; > 100 µM (inactive) in assay [19].
